Test results: patent US20190270733A1, “Quinoline and Isoquinoline Based HDAC Inhibitors and Methods of Use Thereof” (Reaction Biology Corp., priority 2018, published 2019)

Assays:
Human HDAC1 = biological target: T1, Human HDAC1 (Homo sapiens, UniProt Q13547); experiment: Biochemical HDAC assay, HDAC1; conditions: incubation time 120 min
T1 construct: full-length with a C-terminal His-tag and a C-terminal FLAG-tag; His-tag (C); FLAG-tag (C); made in house
Procedure: Human HDAC1 (GenBank Accession No. NM_004964), full-length with a C-terminal His-tag and a C-terminal FLAG-tag, MW=56 kDa, was expressed in a baculovirus expression system.
(§1) • I. Compound handling: Testing compounds were dissolved in 100% DMSO to a specific concentration. The serial dilution was conducted by epMotion 5070 in DMSO. • II. HDAC reaction buffer: 50 mM Tris-HCl, pH8.0, 137 mM NaCl, 2.7 mM KCl, and 1 mM MgCl2, Added fresh: 1 mg/ml BSA, 1% DMSO. • III. Substrate: Fluorogenic HDAC General Substrate for HDAC1, 2, 3, 6, 10, 11 ans Sirt1, 2 and 3: Arg-His-Lys-Lys(Ac); HDAC8 only substrate: Arg-His-Lys(Ac)-Lys(Ac); Class2A Substrate (HDAC4, 5, 7 and 9): Acetyl-Lys(trifluoroacetyl)-AMC; Sirt5 substrate: Ac-Lys(succinyl)-AMC. • IV. General Reaction Procedure: (Standard IC50 determination) • a. Delivered 2× enzyme in wells of reaction plate except No Enzyme (No En) control wells. Add buffer in No En wells. • b. Delivered compounds in 100% DMSO into the enzyme mixture by Acoustic technology (Echo550; nanoliter range). Spin down and pre-incubation. • c. Delivered 2× Substrate Mixture (Fluorogenic HDAC Substrate and co-factor (500 μM of Nicotinamide adenine dinucleotide (NAD^+) in all Sirt assay) in all reaction wells to initiate the reaction. Spin and shake. • d. Incubated for 1-2 hr. at 30° C. with seal. • e. Added Developer with Trichostatin A (or TMP269 or NAD^+) to stop the reaction and to generate fluorescent color. • f. Fluorescence was read (excitatory, 360; emission, 460) using the EnVision Multilabel Plate Reader (Perkin Elmer) • g. Endpoint reading was taken for analysis after the development reaches plateau. • V. Data Analysis: The percentages of enzyme activity (relative to DMSO controls) and IC50 values were calculated using the GraphPad Prism 4 program based on a sigmoidal dose-response equation.
(§2) Compounds with indicated doses was tested in the biochemical assays of HDAC1, HDAC2, HDAC3, HDAC4, HDAC5, HDAC6, HDAC7, HDAC8, HDAC9, HDAC10, or HDAC11 enzyme. The incubation time in HDAC1/2 assays are 120 min, and that for other HDACs are 10 min. The curve fit and IC50 values were calculated using the GraphPad Prism 4 program based on a sigmoidal dose-response equation.

Recombinant human HDAC6 = biological target: T2, Recombinant human HDAC6 (Homo sapiens, UniProt Q9UBN7); experiment: Biochemical HDAC assay, HDAC6; conditions: incubation time 10 min
T2 construct: full-length, MW=180 kDa; GST tag (N); made in house; host or cells: Sf9 insect cells (baculovirus)
T2 sequence (Q9UBN7 1-1215): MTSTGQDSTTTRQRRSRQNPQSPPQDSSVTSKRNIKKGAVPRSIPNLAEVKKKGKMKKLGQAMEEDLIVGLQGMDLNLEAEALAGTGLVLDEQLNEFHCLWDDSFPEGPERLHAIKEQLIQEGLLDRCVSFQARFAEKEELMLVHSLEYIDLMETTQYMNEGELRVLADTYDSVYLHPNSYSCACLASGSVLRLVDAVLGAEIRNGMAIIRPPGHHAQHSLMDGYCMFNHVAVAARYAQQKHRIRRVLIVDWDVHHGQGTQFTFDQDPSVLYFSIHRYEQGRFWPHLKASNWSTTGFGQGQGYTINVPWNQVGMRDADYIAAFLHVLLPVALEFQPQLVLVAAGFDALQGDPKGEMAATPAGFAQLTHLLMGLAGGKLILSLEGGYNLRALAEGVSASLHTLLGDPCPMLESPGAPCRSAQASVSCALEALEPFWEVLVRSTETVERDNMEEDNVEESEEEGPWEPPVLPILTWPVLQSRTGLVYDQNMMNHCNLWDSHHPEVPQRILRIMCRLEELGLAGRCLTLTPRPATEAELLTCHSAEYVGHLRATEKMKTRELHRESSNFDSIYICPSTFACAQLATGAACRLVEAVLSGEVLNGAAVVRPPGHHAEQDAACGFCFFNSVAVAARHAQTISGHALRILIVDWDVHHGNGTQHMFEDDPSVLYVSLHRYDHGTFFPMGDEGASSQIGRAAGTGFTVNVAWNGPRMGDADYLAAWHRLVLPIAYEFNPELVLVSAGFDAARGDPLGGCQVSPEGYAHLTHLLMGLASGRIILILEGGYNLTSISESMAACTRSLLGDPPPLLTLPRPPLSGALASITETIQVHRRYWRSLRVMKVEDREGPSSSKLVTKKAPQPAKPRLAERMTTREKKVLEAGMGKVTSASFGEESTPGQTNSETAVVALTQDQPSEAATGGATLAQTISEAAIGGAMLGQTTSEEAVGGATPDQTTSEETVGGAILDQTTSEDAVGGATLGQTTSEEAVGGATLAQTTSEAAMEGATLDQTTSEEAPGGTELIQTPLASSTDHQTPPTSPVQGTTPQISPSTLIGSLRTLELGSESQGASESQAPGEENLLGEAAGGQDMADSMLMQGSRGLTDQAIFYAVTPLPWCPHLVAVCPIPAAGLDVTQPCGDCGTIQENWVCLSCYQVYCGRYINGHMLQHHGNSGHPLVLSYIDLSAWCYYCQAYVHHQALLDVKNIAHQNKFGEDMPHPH
Procedure: Recombinant human HDAC6 (GenBank Accession No. BC069243), full-length, MW=180 kDa, was expressed by baculovirus in Sf9 insect cells using an N-terminal GST tag.
as §1, §2

[1] = biological target: T3, Complex of human HDAC3 and human NCOR2 (Homo sapiens, UniProt O15379); experiment: Biochemical HDAC assay, HDAC3; conditions: incubation time 10 min
T3 construct: full-length with a C-terminal His tag; His tag (C); made in house
T3 sequence (O15379 whole entry): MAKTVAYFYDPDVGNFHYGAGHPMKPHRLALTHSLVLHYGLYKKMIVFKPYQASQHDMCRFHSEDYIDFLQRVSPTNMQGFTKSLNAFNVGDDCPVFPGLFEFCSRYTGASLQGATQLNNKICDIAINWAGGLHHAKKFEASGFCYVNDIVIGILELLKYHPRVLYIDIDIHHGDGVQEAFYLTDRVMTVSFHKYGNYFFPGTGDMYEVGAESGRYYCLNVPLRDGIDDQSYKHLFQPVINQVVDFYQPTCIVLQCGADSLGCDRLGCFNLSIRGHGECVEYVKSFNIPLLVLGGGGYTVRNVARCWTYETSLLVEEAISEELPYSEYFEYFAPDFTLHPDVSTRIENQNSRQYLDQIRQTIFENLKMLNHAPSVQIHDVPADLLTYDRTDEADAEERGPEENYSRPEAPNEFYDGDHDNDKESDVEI
T3 sequence (Q9Y618 395-489 partner limits assumed): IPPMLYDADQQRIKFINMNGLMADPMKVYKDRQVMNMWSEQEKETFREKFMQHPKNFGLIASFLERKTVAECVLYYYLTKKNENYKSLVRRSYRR
Procedure: Complex of human HDAC3 (GenBank Accession No. NM_003883), full-length with a C-terminal His tag, MW=49.7 kDa, and human NCOR2 (amino acid 395-489) (GenBank Accession No. NM_006312), N-terminal GST tag, MW=37.6 kDa, was co-expressed in a baculovirus expression system.
as §1, §2

Human HDAC2 = biological target: T4, Human HDAC2 (Homo sapiens, UniProt Q92769); experiment: Biochemical HDAC assay, HDAC2; conditions: incubation time 120 min
T4 construct: full-length with a C-terminal His-tag; His-tag (C); made in house
T4 sequence (Q92769 whole entry): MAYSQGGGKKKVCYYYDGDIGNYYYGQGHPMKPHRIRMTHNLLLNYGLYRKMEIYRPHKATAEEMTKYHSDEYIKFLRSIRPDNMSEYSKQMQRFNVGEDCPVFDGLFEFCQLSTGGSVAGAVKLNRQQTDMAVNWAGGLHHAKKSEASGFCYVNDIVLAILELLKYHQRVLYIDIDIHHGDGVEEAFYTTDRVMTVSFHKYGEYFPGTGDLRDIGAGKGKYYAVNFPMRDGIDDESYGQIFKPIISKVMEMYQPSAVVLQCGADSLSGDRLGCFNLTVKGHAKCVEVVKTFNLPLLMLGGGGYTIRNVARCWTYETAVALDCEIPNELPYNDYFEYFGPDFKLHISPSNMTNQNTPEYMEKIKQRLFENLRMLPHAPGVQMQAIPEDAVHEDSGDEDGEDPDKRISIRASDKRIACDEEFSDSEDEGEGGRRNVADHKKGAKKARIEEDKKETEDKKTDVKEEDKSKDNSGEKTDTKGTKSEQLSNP
Procedure: Human HDAC2 (GenBank Accession No. NM_001527), full-length with a C-terminal His-tag, MW=56 kDa, was expressed in a baculovirus expression system.
as §1, §2

Human HDAC8 = biological target: T5, Human HDAC8 (Homo sapiens, UniProt Q9BY41); experiment: Biochemical HDAC assay, HDAC8; conditions: incubation time 10 min
T5 construct: full-length with a C-terminal His tag; His tag (C); made in house
T5 sequence (Q9BY41 1-377): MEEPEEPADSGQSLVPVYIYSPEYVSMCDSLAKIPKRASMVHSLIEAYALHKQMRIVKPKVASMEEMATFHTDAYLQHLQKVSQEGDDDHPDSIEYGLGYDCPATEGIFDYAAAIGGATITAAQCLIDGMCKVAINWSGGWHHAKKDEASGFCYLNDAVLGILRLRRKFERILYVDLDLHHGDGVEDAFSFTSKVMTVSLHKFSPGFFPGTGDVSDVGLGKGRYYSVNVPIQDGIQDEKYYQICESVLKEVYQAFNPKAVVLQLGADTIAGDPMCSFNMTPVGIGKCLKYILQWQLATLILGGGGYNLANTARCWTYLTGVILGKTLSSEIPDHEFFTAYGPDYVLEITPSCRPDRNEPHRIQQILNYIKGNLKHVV
Procedure: Human HDAC8 (GenBank Accession No. NM_018486), full-length with a C-terminal His tag, MW=46.4 kDa, was expressed in a baculovirus expression system.
as §1, §2

T1 sequence (Q13547 whole entry): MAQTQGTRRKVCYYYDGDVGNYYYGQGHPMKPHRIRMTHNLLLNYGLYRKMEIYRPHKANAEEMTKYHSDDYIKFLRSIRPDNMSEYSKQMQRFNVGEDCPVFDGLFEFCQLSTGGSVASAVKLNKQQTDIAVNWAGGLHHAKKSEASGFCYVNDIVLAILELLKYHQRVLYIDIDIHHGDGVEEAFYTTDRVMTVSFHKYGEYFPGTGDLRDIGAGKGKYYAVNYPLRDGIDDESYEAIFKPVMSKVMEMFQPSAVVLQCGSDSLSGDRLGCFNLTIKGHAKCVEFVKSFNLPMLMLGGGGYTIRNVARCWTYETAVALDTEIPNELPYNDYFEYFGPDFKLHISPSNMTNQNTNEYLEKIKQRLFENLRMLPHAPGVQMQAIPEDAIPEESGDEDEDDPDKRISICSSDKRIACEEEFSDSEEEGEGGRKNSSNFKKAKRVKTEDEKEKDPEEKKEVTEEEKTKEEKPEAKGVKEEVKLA

| IC50 (Human HDAC1) | IC50 (Recombinant human HDAC6) | IC50 [1] | IC50 (Human HDAC2) | IC50 (Human HDAC8) | SMILES |
| --- | --- | --- | --- | --- | --- |
| 3 nM | > 10 µM | > 10 µM | 39 nM | > 10 µM | Nc1ccc(-c2cccs2)cc1NC(=O)c1ccc2c(c1)CCN(C(=O)c1cccnc1)C2 [Example 4, N-(2-amino-5-(thiophen-2-yl)phenyl)-2-nicotinoyl-1,2,3,4-tetrahydroisoquinoline-6-carboxamide] |
| 1.8 nM | > 10 µM | > 10 µM | 24 nM | > 10 µM | Nc1ccc(-c2cccs2)cc1NC(=O)c1ccc2c(c1)CCNC2=O [Example 1, N-(2-amino-5-(thiophen-2-yl)phenyl)-1-oxo-1,2,3,4-tetrahydroisoquinoline-6-carboxamide] |
| 2.6 nM | > 10 µM | > 10 µM | 25 nM | > 10 µM | Nc1ccc(-c2cccs2)cc1NC(=O)c1ccc2c(c1)CCN(C(=O)C1CCOCC1)C2 [Example 3, N-(2-amino-5-(thiophen-2-yl)phenyl)-2-(tetrahydro-2H-pyran-4-carbonyl)-1,2,3,4-tetrahydroisoquinoline-6-carboxamide] |
| 1.9 nM | > 10 µM | > 10 µM | 23 nM | > 10 µM | Nc1ccc(-c2cccs2)cc1NC(=O)c1ccc2c(c1)CCN(CC1CCOCC1)C2=O [Example 2, N-(2-amino-5-(thiophen-2-yl)phenyl)-1-oxo-2-((tetrahydro-2H-pyran-4-yl)methyl)-1,2,3,4-tetrahydroisoquinoline-6-carboxamide] |
